Measured values reported in patent US20050282863A1, “Novel-N substituted dihydrobenzothiepino, dihydrobenzoxepino and tetrahydro benzocyclohepta indoles as selective estrogen receptor modulators” (Council of Scientific & Industrial Research, priority 2004, published 2005).
Where two headings read alike, the source gives them in different places.

What was measured:
[1] = tested on: immature ovariectomized rats; experiment: Estrogen agonistic activity: increase in uterine weight in immature ovariectomized rats; type: in vivo, rat; settings: 3 days, percent of ovariectomized + vehicle group
Description: Twenty-one-day-old immature female rats are bilaterally ovariectomized under light ether anaesthesia and, after post-operative rest for 7 days, are randomized into different treatment groups. Each rat receives the compound of the invention once daily for 3 consecutive days on days 28-30 of age. A separate group of animals receiving only the vehicle for similar duration serves as control. A autopsy 24 h after the last treatment on day 31 of age, vaginal smear of each rat is taken and uterus is carefully exised, gently blotted, weighed and fixed for histology and histomorphometry using image analysis. Premature opening of vagina, cornification of vaginal epitelium, increase in uterine fresh weight, total uterine and endometrial area and uterine luminal epithelial cell height are taken as parameters for evaluation of estrogen agonistic activity in comparision to rats of vehicle control group.

[2] = tested on: immature ovariectomized rats; experiment: Estrogen antagonistic activity: inhibition in 17α-ethynylestradiol induced uterine weight gain in immature ovariectomized rats; type: in vivo, rat; settings: 3 days
Description: Twenty-one-day-old immature female rats are bilaterally ovariectomized under light ether anaesthesia and after post-operative rest for 7 days, are randomized into different treatment groups. Each rat receives the compounds of the invention and 0.02 mg/kg dose of 17-alfa-ethynylestradiol in 10% ethanol-distilled water once daily for 3 consecutive days on days 28-30 of age. A separate group of animals receiving only 17-alfa-ethynylestradiol (0.02 mg/kg) in 10% ethanol-distilled water for similar duration are used for comparison. At autopsy on day 31 of age, vaginal smear of each rat is taken and uterus is carefully excised, gently blotted, weighed and fixed for histology and histomorphometry using image analysis. Inhibition in 17-alfa-ethynylestradiol-induced premature opening of vagina, cornification of vaginal epithelium, increase in uterine fresh weight, total uterine and endometrial area and uterine luminal epithelial cell height are taken as parameters for evaluation of estrogen antagonistic activity.

adult female rats = experiment: Post-coital antifertility efficacy in adult female rats; type: in vivo, rat; settings: daily dose 10 mg/kg, oral, days 1-7 post-coitum
Text: Adult female rats are caged overnight with coeval males of proven fertility and their vaginal smears are checked on the following morning. The day of presence of spermatozoa in the vaginal smear is taken as day 1 of pregnancy. Mated rats are isolated and randomized into various treatment groups and treated orally with the compound of invention or the vehicle on days 1-7/1-5 post-coitum. Animals of all the groups are autopsied on day 10 post-coitum and number and status of corpora lutea and implantation sites in each rat are recorded. The compounds of the present invention are considered active if there is complete absence of implantations in the uterus of all rats, in comparison to presence of normal implantations in the uterus of rats of vehicle control group.

estrogen receptors = target: T1, estrogen receptors (Rattus norvegicus, UniProt P06211); experiment: Relative binding affinity (RBA) to estrogen receptors, 3H-estradiol competition assay; set-up: key: % of 17-beta-estradiol binding affinity (estradiol = 100); settings: relative to 17-beta-estradiol (=100, percentage value); rat uterine cytosol, 3H-E2, 18 hrs at 4° C.
T1 construct: Aliquot of uterine cytosol (200 μl; 2 uteri per ml) prepared in TEA buffer; from tissue; host or cells: uterine cytosol of immature estradiol-primed 20-21 day old rats
T1 sequence (P06211 1-600): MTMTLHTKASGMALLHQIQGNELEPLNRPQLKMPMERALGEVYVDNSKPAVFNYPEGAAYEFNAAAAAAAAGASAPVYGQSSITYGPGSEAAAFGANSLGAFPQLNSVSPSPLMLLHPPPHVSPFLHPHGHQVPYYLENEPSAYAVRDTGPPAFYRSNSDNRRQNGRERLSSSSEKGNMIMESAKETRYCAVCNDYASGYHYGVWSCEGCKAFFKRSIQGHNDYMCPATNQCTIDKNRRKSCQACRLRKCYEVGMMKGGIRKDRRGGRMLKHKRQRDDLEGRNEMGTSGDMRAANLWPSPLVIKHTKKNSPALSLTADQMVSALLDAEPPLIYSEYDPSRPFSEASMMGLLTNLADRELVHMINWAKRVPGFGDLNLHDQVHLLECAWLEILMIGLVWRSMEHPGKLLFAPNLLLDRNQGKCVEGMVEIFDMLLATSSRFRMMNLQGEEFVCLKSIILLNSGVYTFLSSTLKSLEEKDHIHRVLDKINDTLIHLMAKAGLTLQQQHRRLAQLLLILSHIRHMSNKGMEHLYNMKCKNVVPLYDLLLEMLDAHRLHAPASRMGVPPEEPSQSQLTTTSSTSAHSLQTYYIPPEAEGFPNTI
Description: The relative binding affinity (RBA) of the compounds for estrogen receptor is determined by competition assay, employing ^3H-estradiol (^3H-E2) as the radioligand. The test ligands and ^3H-E2 are incubated at 4° C. with cystol estrogen receptors obtained from uteri of immature estradoil-primed (1 μg/rat 24 h before autopsy) 20-21 days old rats. Aliquot of uterine cytosol (200 μl; 2 uteri per ml) prepared in TEA buffer (10 mM Tris, 1.5 mM EDTA, 0.02% sodium azide, pH 7.4) are incubated in duplicate with a fixed concentration of ^3H-E2 in the absence or presence of various concentrations of the competitor substance dissolved in 30 μl of the TEA buffer containing DMF as co-solvent (final concentration of DMF in the incubation mixture never exceeded 5%) for 18 hrs at 4° C. At the end of this period, dextran coated charcoal (5% Norit 0.5% dextran) suspension in 100 μl of TEA buffer is added to each tube, briefly vortexed and allowed to stand for 15 minutes at 4° C. The mixture is centrifuged at 800 g for 10 minutes and the supernatants counted for radioactivity in 10 ml of a dioxane-based scintillation fluid. RBA of the text compound is computed from a graph plotted between percent bound radioactivity verses log concentration of the test substance. […] This when multiplied with 100 gives the percentage value designated as RBA.

MCF-7 cells = experiment: Antiproliferative/cytotoxic activity in cultured MCF-7 cells (SRB assay); type: cell-based; settings: Homo sapiens, MCF7, 48 h, MCF-7, 48 h
Description: The procedure is based on the following methods: New calorimetric assay for anticancer drug screening, Skehan et al., J Natn Cancer Inst, 82,1107, 1990 and Feasibility of a high-flux anticancer drug screen using a diverse panel of cultured human tumor cell lines, J Natn Cancer Inst, 83,757, 1991.
A fully confluent flask of MCF-7 cells in trypsinized and 10^4 cells/well are plated in a 96 welled flat bottomed plate in 200 μl Minimum Essential Medium (MEM), pH 7.4 and allowed to attach for 24 h at 37° C. in a humidified CO2 incubator. Subsequently, the compound of invention dissolved in DMSO or ethanol is added at a specified concentration and further incubated for 48 h as before. The cells are then fixed in 50 μl cold 50% TCA and incubated for 1 h at 4° C. The supernatant is discarded and the plate is washed five times with deionized water and air-dried. 100 μl of 0.4% (w/v) Sulforhodamine B (SRB) in 1% acetic acid is added to each well and incubated at room temperature for 30 minutes. Unbound SRB is removed by five washes with chilled 1% acetic acid and the plate is air-dried. 200 μl of unbuffered 10 mM Tris base is added to solublize the bound stain for 5 minutes at room temperature and O.D. is read at 560 nm in a plate reader. The graph is plotted between O.D. and concentration and LC50 is calculated with respect to tamoxifen, which is used as a positive control.

With CCCCN(C)CCCCCn1c2c(c3ccccc31)CCSc1ccccc1-2.O=C1O[C@H]([C@@H](O)CO)C(O)=C1O [Example number 15, 12-[5-(N-butylmethylamino)pentyl]-6,7-dihydro-12H-benzothiepino [5,4-b]indole ascorbic acid salt] the “Percent increase in uterine weight” value ([1]; daily dose 1 mg/kg) was 11.00%, the “Percent increase in uterine weight” value ([1]; daily dose 3 mg/kg) was 15.00% and the “Percent increase in uterine weight” value ([1]; daily dose 10 mg/kg) was 11.50%. For the same molecule, the “Percent inhibition in 17α-ethynylestradiol induced uterine weight gain” value (“Percent inhibition” for short) ([2]; daily dose 1 mg/kg with 0.02 mg/kg 17-alfa-ethynylestradiol) was 10.00%, the “Percent inhibition” value ([2]; daily dose 3 mg/kg with 0.02 mg/kg 17-alfa-ethynylestradiol) was 23.00% and the “Percent inhibition” value ([2]; daily dose 10 mg/kg with 0.02 mg/kg 17-alfa-ethynylestradiol) was 15.00%.
For Oc1ccc2c(c1)c1c(n2CCCCCN2CCCCC2)-c2ccccc2SCC1 [Example number 29, 9-Hydroxy-12-[5-(piperidine-1-yl)pentyl]-6,7-dihydro-12H-benzothiepino [5,4-b]indole], the “% Efficacy” value (adult female rats) was “Inactive” and the RBA (estrogen receptors) was <0.001.
In the case of COc1ccc2c(c1)SCCc1c-2n(CCCCCN2CCCC2)c2ccccc12 [Example number 23, 3-Methoxy-12-[5-(pyrrolidine-1-yl)pentyl]-6,7-dihydro-12H-benzothiepino [5,4-b]indole], the CC50 (MCF-7 cells; read-out: LC50, Test-4) is reported as 60 µM and the RBA (estrogen receptors) is reported as <0.001.
In the case of COc1ccc2c(c1)SCCc1c-2n(CCCCCN2CCCCC2)c2ccc(OC)cc12 [Example number 32, 3,9-Dimethoxy-12-[5-(piperidine-1-yl)pentyl]-6,7-dihydro-12H-benzothiepino [5,4-b]indole], the CC50 (MCF-7 cells; read-out: LC50, Test-4) is reported as 28 µM and the RBA (estrogen receptors) is reported as <0.001.
For c1ccc2c(c1)SCCc1c-2n(CCCCCCN2CCCC2)c2ccccc12 [Example number 19, 12-[6-(Pyrrolidine-1-yl)hexyl]-6,7-dihydro-12H-benzothiepino [5,4-b]indole], the RBA (estrogen receptors) was 0.053.
For c1ccc2c(c1)SCCc1c-2n(CCCN2CCCCC2)c2ccccc12 [Example number 7, 12-[3-(Piperidine-1-yl)propyl]-6,7-dihydro-12H-benzothiepino [5,4-b]indole], the CC50 (MCF-7 cells; read-out: LC50, Test-1) was 46 µM, the “% Efficacy” value (adult female rats) was “Inactive” and the change in vivo at 3 mg/kg ([1]; Rattus norvegicus, 72 h, daily dose 3 mg/kg) was 24.6%. It also gave a change in vivo at 10 mg/kg ([1]; Rattus norvegicus, 72 h, daily dose 10 mg/kg) of 109% and an inhibition in vivo at 10 mg/kg/day ([2]; Rattus norvegicus, 72 h, daily dose 10 mg/kg with 0.02 mg/kg 17-alfa-ethynylestradiol, read-out: Percent inhibition in 17α-ethynylestradiol induced uterine weight gain) of 15.4%.
In the case of CCCCN(C)CCCCCCn1c2c(c3ccccc31)CCSc1ccccc1-2 [Example number 20, 12-[6-(N-butylmethylamino)hexyl]-6,7-dihydro-12H-benzothiepino [5,4-b]indole], the RBA (estrogen receptors) is reported as 0.10.
With CC/C(=C(\c1ccccc1)c1ccc(OCCN(C)C)cc1)c1ccccc1 [Tamoxifen, reference compound] the CC50 (MCF-7 cells; read-out: LC50, Test-1) was 18.5 µM, the CC50 (MCF-7 cells; read-out: LC50, Test-2) was 5.5 µM and the CC50 (MCF-7 cells; read-out: LC50, Test-3) was 12.4 µM. The CC50 (MCF-7 cells; read-out: LC50, Test-4) was 9.8 to 10 µM.
COc1ccc2c(c1)SCCc1c-2n(CCCCCN2CCCC2)c2ccc(OC)cc12 [Example number 33, 3,9-Dimethoxy-12-[5-(pyrrolidine-1-yl)pentyl]-6,7-dihydro-12H-benzothiepino [5,4-b]indole] was tested, and the CC50 (MCF-7 cells; read-out: LC50, Test-4) was 18.2 µM and the RBA (estrogen receptors) was <0.001.
In the case of c1ccc2c(c1)SCCc1c-2n(Cc2ccc(OCCCCCN3CCCCC3)cc2)c2ccccc12 [Example number 43, 12-[4-(5-Piperidin-1-yl-pentyloxy)benzyl]-6,7-dihydro-12H-benzothiepino [5,4-b]indole], the “% Efficacy” value (adult female rats) is reported as “Inactive”.
With c1ccc2c(c1)SCCc1c-2n(Cc2ccc(OCCCCCN3CCCCC3)cc2)c2ccccc12 [Example number 60, 12-[4-(5-Piperidin-1-yl-pentyloxy)benzyl]-6,7-dihydro-12H-benzothiepino [5,4-b]indole] the CC50 (MCF-7 cells; read-out: LC50, Test-4) was 18.4 µM and the “% Efficacy” value (adult female rats) was “Inactive”.
With c1ccc2c(c1)SCCc1c-2n(CCCCN2CCCCC2)c2ccccc12 [Example number 9, 12-[4-(Piperidine-1-yl)butyl]-6,7-dihydro-12H-benzothiepino [5,4-b]indole] the CC50 (MCF-7 cells; read-out: LC50, Test-2) was 37.4 µM.
In the case of COc1ccc2c(c1)SCCc1c-2n(CCCCCN2CCCCC2)c2ccccc12 [Example number 22, 3-Methoxy-12-[5-(piperidine-1-yl)pentyl]-6,7-dihydro-12H-benzothiepino [5,4-b]indole], the CC50 (MCF-7 cells; read-out: LC50, Test-4) is reported as 19.5 µM and the RBA (estrogen receptors) is reported as <0.001.
CCCCN(C)CCCCCn1c2c(c3cc(OC)ccc31)CCSc1cc(OC)ccc1-2 [Example number 34, 3,9-Dimethoxy-12-[5-(N-butylmethylamino)pentyl]-6,7-dihydro-12H-benzothiepino [5,4-b]indole] was tested, and the RBA (estrogen receptors) was 0.032.
Oc1ccc2c(c1)SCCc1c-2n(CCCCCN2CCCC2)c2ccccc12 [Example number 25, 3-Hydroxy-12-[5-(pyrrolidine-1-yl)pentyl]-6,7-dihydro-12H-benzothiepino [5,4-b]indole] showed a CC50 (MCF-7 cells; read-out: LC50, Test-2) of 15 µM and an RBA (estrogen receptors) of 0.83.
With C#C[C@]1(O)CC[C@H]2[C@@H]3CCc4cc(O)ccc4[C@H]3CC[C@@]21C [17α-Ethynylestradiol, reference compound] the “Percent increase in uterine weight” value ([1]; daily dose 0.01 mg/kg) was 419%.
